Here are results for one compound from patent publication US10918891B2, “Cosmetic treatment method for the skin” (SYNTIVIA, priority 2016, dated 2021).

Common to all, as to assay type: cell-based, human
In one test the test system is IL-8. Description: IL-8 assay (ELISA) in culture supernatants of NHEK after induction with IL-1β. Here is the method: This study is carried out on normal human Keratinocytes (NHEK).
In this example, the anti-inflammatory properties of the compound (Ia) are evaluated by the assay of the IL-8, after the application of the cytokine IL-1β at 10 ng/ml onto NHEKs. IL-8 is a major inflammatory cytokine produced first of all during the inflammatory response of the keratinocytes. The quantification of the IL-8 in the culture supernatants allows an evaluation of the inflammatory state of the cells.
The IL-1β is added to the culture medium of the NHEKs at a rate of 10 ng/ml for 24 h. After incubation, the culture media are removed and replaced with culture media containing the compound (Ia) at 3 ppm. After 24 h of incubation, the supernatants are collected.
The reference anti-inflammatory element is dexamethasone (Sigma) used at 0.4 ppm. A control having undergone the same experimental conditions without the compound (Ia) (CTL), as well as a non-induced control (CTL without IL-1β), are also carried out.
The quantification of the IL-8 in 50 μl of the culture supernatants is measured by an ELISA test (human CXCL8/IL-8 Immunoassay, R&D Systems).
Each treatment is carried out in triplicate.
A general note: ELISA stands for enzyme-linked immunosorbent assay.

The next test has as its system Sirtuin-6. Description: Protein expression of Sirtuin-6 by immunofluorescence in NHDF. The settings on record: (Ia) 10 ppm, 24 hours. How it is done: The cells used for this example are normal human Fibroblasts (NHDF).
In this example, the expression of Sirtuin-6 is measured at the protein level by the technique of immunofluorescence, after in vitro incubation of the cells in the absence or in the presence of compound (Ia) at a concentration of 10 ppm in an aqueous solution with 0.1% dimethylsulfoxide (DMSO).
The cells are cultured at the concentration of 5000 cells per well of 96-well plates, in the presence of standard culture medium for NHDF.
The contact with the compound (Ia) is carried out for 24 hours.
TGFβ is used as a positive control at the concentration of 10 ng/ml in an aqueous solution. A non-treated control is also carried out.
The supernatant is eliminated and the cells are prepared for the fluorescent marking. The cells are fixed in the presence of 3.7% formaldehyde, then permeabilised in a buffer containing 1% Triton®, finally the cells are rinsed and incubated in the presence of an anti-SIRT6 antibody (Abcam) for 2 hours. After washing, the cells are incubated in the presence of the secondary antibody (Alexa GAR488, Invitrogen) for 1 h. After washing, the cells are incubated in the presence of DAPI for 10 min, then rinsed once again.
The fluorescence is then quantified using an automated microscope (ArrayScan® (Cellomics®)).

The subject of test [1] is NHDF cells. In words: Cellular viability (WST1) of NHDF exposed to cigarette extract. The settings on record: (Ia) 10 ppm pretreatment 24 h and treatment 24 h; cigarette extract diluted 1/50; WST1, 450 nm; Control 1.618, Cigarette extract 1.357. How it is done: (§1) The cells used for this example are normal human Fibroblasts (NHDF) and normal human epidermal Keratinocytes (NHEK).
(§2) A cigarette extract is prepared using a laboratory device allowing the sucking up of cigarette smoke via a suction system, and the controlled bubbling of this cigarette smoke into the solution studied, which is then filtered on a 0.22 μm filter made of Polyether sulfone (PES).
(§3) The cells are cultured at the concentration of 7000 cells per well of 96-well plates (NHDF) or 8000 cells per well (NHEK), in the presence of standard culture medium for NHDF or NHEK (for 24 h 37° C., 5% CO2).
(§4) After pretreatment of the cells with the compound (Ia) at 10 ppm for 24 h the cells are treated with the cigarette extract diluted to 1/50th in the culture medium with or without the compound (Ia) at 10 ppm for 24 h. The absorbance is read a first time at […] (Multiskan®).
(§5) Then, 10 μl of WST1 (Roche) are introduced into the medium and the cells are incubated for 3 hours.
(§6) The absorbance at 450 nm is measured after the addition of WST1 (Multiskan®) and the results obtained, in terms of cellular viability, are shown in tables 11 and 12 below. The treated cells (Cigarette extract+(Ia)) are compared to the untreated cells (Control) or to the cells having only undergone exposure to the cigarette extract (Cigarette extract).
In general terms: Tetrazolium assays rely on reduction of a dye to a coloured formazan, in cell work by metabolically active cells.

The subject of another test is NHEK cells. In words: Cellular viability (WST1) of NHEK exposed to cigarette extract. The following applies: (Ia) 10 ppm pretreatment 24 h and treatment 24 h; cigarette extract diluted 1/50; WST1, 450 nm; Control 2.070, Cigarette extract 1.392. Here is the method: as §1, §2, §3, §4, §5, §6
Test [2] deals with NHDF cells. Description: DNA double-strand breaks (γ-H2AX) induced by cigarette extract in NHDF. The settings on record: (Ia) 10 ppm pretreatment 24 h and treatment 24 h, cigarette extract 1/50, Control 6441, Cigarette extract 11404. How it is done: as §1
The cells are cultured at the concentration of 3000 cells per well of 96-well plates in the presence of standard culture medium for NHDF or NHEK (for 24 hours, 37° C., 5% CO2).
After pretreatment of the cells with the compound (Ia) at 10 ppm for 24 hours, the cells are treated with the cigarette extract diluted to 1/50° with or without compound (Ia) at 10 ppm for 24 hours. […].
After washing, the samples are then placed in the presence of DAPI for 10 min in order to mark the nuclei, then rinsed once again. The marked proteins are observed and quantified with an automated fluorescence microscope (ArrayScan® (Cellomics®)). The cells treated by the compound (Ia) are then compared to the untreated cells or to the cells only exposed to the cigarette extract.

Marks after values point to notes of the source that are not given here.

By inhibition is commonly meant the change of the read-out against control, counted positive when it falls. For the compound `Cc1ncc(CO)c(CNC(=O)/C=C/c2ccc(O)c(O)c2)c1O` [Compound (Ia)], the inhibition at 3 ppm in the test with IL-8 (Homo sapiens, compound 3 ppm, versus control CTL, read-out: inhibition of the production of IL8 in keratinocytes subjected to inflammation in the presence of IL-1β) amounted to 30%. In addition, in the test on IL-8 (IL-1β 10 ng/ml 24 h, then substance 24 h, compound (Ia) 3 ppm, dexamethasone 0.4 ppm, CTL 0.23, CTL without IL-1β 0.06), the “Quantification of the IL8 (optical density)” value stood at 0.16 optical density. The “Protein expression of the Sirtuin-6 compared to the basal level, based on 100%” value in the test with Sirtuin-6 worked out at 113.69%. For the same compound, in the test on NHDF cells [1], the “Cellular viability on NHDF (Optical density)” value was 1.674 Optical density. The “Cellular viability on NHEK (Optical density)” value with NHEK cells is given as 2.589 Optical density. In addition, in the test on NHDF cells [2], the “Double-strand breaks of the DNA for NHDF (AU)” value is on record as 8752*** AU.
